The values below come from patent US12295973B2 (Fred Hutchinson Cancer Center, priority 2017, dated 2025).

SMILES strings stand for the structures. Where a SMILES comes first, the peptide text is derived from it. [ ]: non-standard residue; d: D form. The star is where a group is joined. dPhe(4-NHCONH2) = NC(=O)Nc1ccc(C[C@@H](N)C(=O)O)cc1; Dihydroorotyl(S) = O=C1C[C@@H](C(=O)*)NC(=O)N1; dPhe(4-Cl) = N[C@H](Cc1ccc(Cl)cc1)C(=O)O; Phe(4-NH2) = Nc1ccc(C[C@H](N)C(=O)O)cc1; d2Nal = N[C@H](Cc1ccc2ccccc2c1)C(=O)O; Lys(iPr) = CC(C)NCCCC[C@H](N)C(=O)O; d3Pal = N[C@H](Cc1cccnc1)C(=O)O

Assay [1] concerns mice exposed to L-TBI. The assay can be described thus: Mouse survival after lethal total body irradiation (L-TBI, 840cGy). The class given is in vivo. The text has this:
(§1) Description. Inhibition of sex steroids, which can be achieved in a reversible fashion pharmacologically, is a well-described strategy to promote lymphopoiesis in the BM and thymus^8,7,14,15. Although the most common method of sex steroid ablation clinically has been to use LHRH-agonists, it was described that an LHRH-Antagonist represents a more rational approach to promote immediate ablation of sex steroids for immune regeneration as it is far more rapid and abrogates the initial surge in sex steroids that LHRH-Agonist cause^16. Taken together with the impact of sex steroid inhibition on HSC function and the rapid regenerative effects of LHRH-Ant, it was hypothesized that LHRH-Ant could represent a rational non-cellular medical countermeasure for mitigating radiation injury and promoting hematopoietic regeneration when administered after hematopoietic insult. […] It was then tested if LHRH-Ant could mediate even greater mouse survival when administered multiple times.
Methods. […] B6.SJL-Ptprca Pepcb/BoyJ (CD45.1) male mice (The Jackson Laboratory) were used between 7 and 12 weeks of age for transplant. Mice were irradiated with a Gammacell 40 Irradiator (Cs-137), with an average dose rate of 95 cGy/min, in a plexiglass mouse pie cage. To assess mouse survival after radiation, mice were monitored for up to 60 days after TBI. To adjust for differences in weight, identical mice were purchased from Jackson and cages randomly distributed over different groups. All animal protocols were approved by the Memorial Sloan Kettering Cancer Center Institutional Animal Care and Use Committee.
Reagents: Degarelix (as acetate), a LHRH-Ant (Firmagon), was resuspended in sterile water for injection and administered S.C. to mice at a dose of 40 mg/kg. To evaluate the radiomitigative effect of LHRH-Ant on survival, mice were treated subcutaneously (S.C.) with a single injection of the LHRH-Ant or a saline control solution (PBS). Degarelix was purchased from the Memorial Sloan-Kettering Cancer Center Pharmacy. […] MDV3100 (selleckchem) was resuspended in a mixture of 45% PBS, 45% PEG and 10% DMSO and administered daily to mice by oral gavage at a dose of 10 mg/kg. 5-FU (InvivoGen) was administered to mice intraperitoneally (I.P.) at a dose of 150 mg/kg once every 7 days consecutively for 3 times as previously described^34,47,49.

In assay [2] the test system is mice exposed to L-TBI. The assay can be described thus: Complete blood counts (peripheral blood recovery) after L-TBI. The class given is in vivo, mouse. The note with it: vs vehicle.
Source text: as §1, with “insult. To test this hypothesis, a lethal TBI (L-TBI) dose of 840cGy that mediated lethality in more than 90% of mice (FIG. 1A) was used. […] Mouse lethality was a result of bone marrow failure, since transplant of BM Lin-Sca1^+tkit^+ (LSK) cells 3 days after L-TBI completely rescued all mice (FIG. 1B).” for “insult.”
Methods. […] To assess mouse survival after radiation, mice were monitored for up to 60 days after TBI. […]

The subject of assay [3] is mice challenged with successive doses of 5-FU. The assay can be described thus: Mouse survival after serial 5-fluorouracil (5-FU) challenge. Type of assay: in vivo. The conditions noted are these: 5-FU 150 mg/kg I.P. once every 7 days, 3 times. The text has this:
To test whether this LHRH-Ant-mediated preservation of HSC quiescence and enhancement of HSC survival after hematopoietic stress could confer protection against chemotherapy-induced myeloablation, mice were challenged with successive doses of 5-fluorouracil (5-FU); a well-established method to functionally test HSC proliferation and self-renewal that leads to ablation of proliferating HSCs and ultimately death^29,34,47.
Reagents: Degarelix (as acetate), a LHRH-Ant (Firmagon), was resuspended in sterile water for injection and administered S.C. to mice at a dose of 40 mg/kg. To evaluate the radiomitigative effect of LHRH-Ant on survival, mice were treated subcutaneously (S.C.) with a single injection of the LHRH-Ant or a saline control solution (PBS). Degarelix was purchased from the Memorial Sloan-Kettering Cancer Center Pharmacy. […] LH from human pituitary (SIGMA) was resuspended in PBS for in vitro studies. MDV3100 (selleckchem) was resuspended in a mixture of 45% PBS, 45% PEG and 10% DMSO and administered daily to mice by oral gavage at a dose of 10 mg/kg. 5-FU (InvivoGen) was administered to mice intraperitoneally (I.P.) at a dose of 150 mg/kg once every 7 days consecutively for 3 times as previously described^34,47,49.

Consider `CC(=O)N[C@H](Cc1ccc2ccccc2c1)C(=O)N[C@H](Cc1ccc(Cl)cc1)C(=O)N[C@H](Cc1cccnc1)C(=O)N[C@@H](CO)C(=O)N[C@@H](Cc1ccc(NC(=O)[C@@H]2CC(=O)NC(=O)N2)cc1)C(=O)N[C@H](Cc1ccc(NC(N)=O)cc1)C(=O)N[C@@H](CC(C)C)C(=O)N[C@@H](CCCCNC(C)C)C(=O)N1CCC[C@H]1C(=O)N[C@H](C)C(N)=O` [LHRH-Ant, Degarelix] (Ac-[d2Nal][dPhe(4-Cl)][d3Pal]S[Phe(4-NH2)](Dihydroorotyl(S))[dPhe(4-NHCONH2)]L[Lys(iPr)]P[dA]-NH2), for which the “survival after L-TBI” value in assay [1] (LHRH-Ant given 24 h after L-TBI, vs vehicle, male mice) was “significant increase in survival”; in assay [1] (administered 48 h after L-TBI) it was “significantly enhanced mouse survival”. Moreover, the “survival after L-TBI in female mice” value in assay [1] (female mice) is given as “statistically significant benefit in survival”. Also, in assay [1] (male mice castrated 5 days prior to TBI, simultaneous LHRH-Ant), the “survival after L-TBI in surgically castrated mice” value was “restored the benefits in mouse survival”. The “survival after L-TBI, multiple administrations” value in assay [1] (treatment 24 h and 15 days after L-TBI, vs single treatment) is “did not significantly enhance the survival benefit”. Besides, in assay [2], the “complete blood counts recovery after L-TBI” value is “recovered after L-TBI”. Besides, the “survival after serial 5-FU challenge” value in assay [3] is recorded as “significantly improved survival”.
